Experimental data published in patent publication US8299091B2, “Aminoisoquinoline thrombin inhibitor with improved bioavailability” (MSD Oss B.V., priority 2006, dated 2012).
Where a name gives a salt, the structure may show the parent alone. Read-outs that look alike come from different tables or passages of the source. One block for each compound: values may come before it.

Experiments:
human α-thrombin = molecular target: T1, human α-thrombin (Homo sapiens, UniProt P00734); assay: Assay of thrombin activity (chromogenic substrate S-2238); type: biochemical; conditions: for IC50: 10 min pre-incubation at 37° C, substrate S-2238; for Ki: Hanes-Woolf analysis, S-2238 concentration varied
T1 construct: human α-thrombin
Procedure: Thrombin inhibitory activity was assessed by pre-incubating the test compound at a variety of concentrations with human α-thrombin at 37° C. After 10 min, the chromogenic substrate H-D-Phe-Pipecolinyl-Arg-ρ-nitroanilide (S-2238) was added to the mixture and the change in absorbance measured over the following 8 min.

[1] = Determination of bioavailability / pharmacokinetics in rats; type: in vivo; conditions: male, Wistar Ola, plasma, rat, saline; for half-life: read-out: T½ (converted); for Vd: read-out: Vss
From the text: Determination of Bioavailability of Compounds 1A, 2A and 3A in Rats
Male Wistar Ola rats (˜250 g). Food and water were available ad libitum throughout the studies.
For intravenous pharmacokinetic studies, catheters (Portex polythene—ID 0.58 mm, OD 0.96 mm with a tip made from SF Medical silicone tubing, SFM1-1350) were inserted into the right jugular vein under isoflurane anaesthesia. The tubing was exteriorised at the back of the neck, filled with heparinised saline (100 Um/ml) and stoppered. Animals were allowed a minimum of 48 h recovery before dosing.
Compounds 1A, 2A and 3A were administered orally (PO). Compounds 1B, 2B and 3B were administered intravenously (IV). Serial blood samples (for plasma) were taken from a lateral vein at points from 3 min to 24 hrs (terminal sample by cardiac puncture) according to a matrix design protocol (3 samples per time point). Plasma samples were stored at −20° C. until analysis.
Plasma samples were analyzed for the pertinent free acid thrombin derivatives 1B, 2B and 3B using an LC-MS method. Cmax (maximum plasma concentrations) and AUC values were determined from the mean plasma concentration—time profiles.
Noncompartmental pharmacokinetic analysis was performed using WinNonlin Professional 3.1 and 4.1.

[2] = as above; type: in vivo; conditions: male, Wistar Ola, plasma, rat
[3] = IV 5 mg/kg, mean of two studies
[4] = PO 10 mg/kg of the free acid itself, saline

SMILES: Cl.Nc1nccc2cc(CNC(=O)[C@@H]3CCCN3C(=O)[C@H](NCC(=O)O)C(c3ccccc3)c3ccccc3)ccc12 [Compound 1B, N-(carboxymethyl)-β-phenyl-D-phenylalanyl-N-[(1-amino-6-isoquinolyl)methyl]-L-prolinamide hydrochloride]
IC50 (human α-thrombin): 12.6 nM
Ki (human α-thrombin): 0.9 nM
AUC [1, 3]: 4860 ng·h/mL
clearance [1, 3]: 17 mL/min/kg
half-life [1, 3]: 19.2 min
Vd [1, 3]: 0.48 L/kg
bioavailability ([2]; PO 10 mg/kg of the free acid itself vs IV): 1.3%
AUC [2, 4]: 119 ng·h/mL
Cmax [2, 4]: 35 ng/mL
Tmax [2, 4]: 72 min

SMILES: Nc1nccc2cc(CNC(=O)[C@@H]3CCCN3C(=O)[C@@H](Cc3ccccc3)NCC(=O)O)ccc12 [Compound 2B, N-(carboxymethyl)-D-phenylalanyl-N-[(1-amino-6-isoquinolyl)methyl]-L-prolinamide trifluoroacetate]
AUC ([1]; IV 2 mg/kg): 659 ng·h/mL
clearance ([1]; IV 2 mg/kg): 54 mL/min/kg
half-life ([1]; IV 2 mg/kg): 36.6 min
Vd ([1]; IV 2 mg/kg): 2.4 L/kg

SMILES: CCCOC(=O)CN[C@H](Cc1ccccc1)C(=O)N1CCC[C@H]1C(=O)NCc1ccc2c(N)nccc2c1 [Compound 2A, N-(2-propoxy-2-oxoethyl)-D-phenylalanyl-N-[(1-amino-6-isoquinolyl)methyl]-L-prolinamide hydrochloride]
IC50 (human α-thrombin): 573 nM
Ki (human α-thrombin): 34.5 nM

SMILES: CCCOC(=O)CN[C@@H](C(=O)N1CCC[C@H]1C(=O)NCc1ccc2c(N)nccc2c1)C(c1ccccc1)c1ccccc1 [Compound 1A, N-(2-oxo-2-propoxyethyl)-β-phenyl-D-phenylalanyl-N-[(1-amino-6-isoquinolinyl)methyl]-L-prolinamide]
IC50 (human α-thrombin): 13 nM
Ki (human α-thrombin): 1 nM

Next, values leading:

IC50 (human α-thrombin): 358 nM
Ki (human α-thrombin): 5.4 nM
AUC ([1]; IV 2 mg/kg): 1010 ng·h/mL
clearance ([1]; IV 2 mg/kg): 34 mL/min/kg
half-life ([1]; IV 2 mg/kg): 9.6 min
Vd ([1]; IV 2 mg/kg): 0.46 L/kg
SMILES: COc1ccc(C[C@@H](NCC(=O)O)C(=O)N2CCC[C@H]2C(=O)NCc2ccc3c(N)nccc3c2)cc1 [Compound 3B, N-(carboxymethyl)-O-methyl-D-tyrosinyl-N-[(1-amino-6-isoquinolyl)methyl]-L-prolinamide trifluoroacetate]

IC50 (human α-thrombin): 197 nM
Ki (human α-thrombin): 1.8 nM
SMILES: CCCOC(=O)CN[C@H](Cc1ccc(OC)cc1)C(=O)N1CCC[C@H]1C(=O)NCc1ccc2c(N)nccc2c1 [Compound 3A, N-(2-propoxy-2-oxoethyl)-O-methyl-D-tyrosinyl-N-[(1-amino-6-isoquinolyl)methyl]-L-prolinamide hydrochloride]
